In patent US20200121684A1, “MODULATORS OF BTK PROTEOLYSIS AND METHODS OF USE” (Yale University, priority 2018, published 2020):
“Also recorded” adds a separate entry of the source.

Experiments:
[1] = molecular target: T1, BTK (Homo sapiens, UniProt Q06187); assay: BTK degradation in NAMALWA cells, immunoblot; type: cell-based
T1 construct: host or cells: NAMALWA

[2] = molecular target: T2, HER3 (Homo sapiens, UniProt P21860); assay: HER3 (ERBB3) degradation, immunoblot; type: cell-based; details: Table 5
T2 construct: endogenous in cells
T2 sequence (P21860 20-1342): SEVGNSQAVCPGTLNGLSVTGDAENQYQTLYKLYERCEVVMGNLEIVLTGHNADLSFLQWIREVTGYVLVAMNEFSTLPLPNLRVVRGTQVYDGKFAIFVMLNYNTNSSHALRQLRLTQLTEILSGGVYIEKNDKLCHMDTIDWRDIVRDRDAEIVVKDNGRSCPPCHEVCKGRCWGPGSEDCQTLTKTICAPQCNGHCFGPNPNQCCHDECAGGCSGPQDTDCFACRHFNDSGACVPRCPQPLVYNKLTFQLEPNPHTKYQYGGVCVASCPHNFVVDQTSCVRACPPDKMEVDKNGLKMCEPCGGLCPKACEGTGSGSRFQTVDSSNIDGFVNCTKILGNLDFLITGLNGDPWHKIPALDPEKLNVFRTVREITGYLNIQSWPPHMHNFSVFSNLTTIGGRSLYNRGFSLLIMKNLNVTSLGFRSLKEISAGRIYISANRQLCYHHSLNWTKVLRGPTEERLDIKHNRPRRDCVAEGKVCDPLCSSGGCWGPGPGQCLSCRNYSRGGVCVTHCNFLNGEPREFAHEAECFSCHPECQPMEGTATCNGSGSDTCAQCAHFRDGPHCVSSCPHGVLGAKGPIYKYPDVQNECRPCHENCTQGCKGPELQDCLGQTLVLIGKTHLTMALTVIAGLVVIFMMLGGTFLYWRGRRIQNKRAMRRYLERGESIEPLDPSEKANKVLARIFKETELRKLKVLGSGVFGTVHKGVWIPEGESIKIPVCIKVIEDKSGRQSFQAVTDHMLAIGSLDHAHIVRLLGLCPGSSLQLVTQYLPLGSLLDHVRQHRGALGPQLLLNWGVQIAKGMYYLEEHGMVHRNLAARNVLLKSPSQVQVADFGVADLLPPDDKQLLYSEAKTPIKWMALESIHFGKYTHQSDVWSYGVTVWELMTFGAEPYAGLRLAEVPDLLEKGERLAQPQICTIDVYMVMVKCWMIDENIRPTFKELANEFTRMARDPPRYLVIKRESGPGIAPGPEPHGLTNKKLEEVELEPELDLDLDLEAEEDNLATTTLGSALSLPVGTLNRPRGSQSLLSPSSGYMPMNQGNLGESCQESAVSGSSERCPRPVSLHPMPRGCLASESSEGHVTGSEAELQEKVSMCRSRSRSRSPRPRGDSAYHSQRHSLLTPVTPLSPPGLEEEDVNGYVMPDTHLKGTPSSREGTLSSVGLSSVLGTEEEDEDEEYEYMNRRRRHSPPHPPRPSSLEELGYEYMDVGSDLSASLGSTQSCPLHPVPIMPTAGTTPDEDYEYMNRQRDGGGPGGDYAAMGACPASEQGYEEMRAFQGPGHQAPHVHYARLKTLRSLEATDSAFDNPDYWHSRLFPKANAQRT

[3] = molecular target: T3, IKZF3 (Homo sapiens, UniProt Q9UKT9); assay: IKZF3 degradation in primary cells from CLL patients, immunoblot; type: cell-based; details: B-lymphocytes derived from CLL patients
T3 construct: endogenous in cells; host or cells: primary B-lymphocytes from CLL patients
T3 sequence (Q9UKT9 whole entry): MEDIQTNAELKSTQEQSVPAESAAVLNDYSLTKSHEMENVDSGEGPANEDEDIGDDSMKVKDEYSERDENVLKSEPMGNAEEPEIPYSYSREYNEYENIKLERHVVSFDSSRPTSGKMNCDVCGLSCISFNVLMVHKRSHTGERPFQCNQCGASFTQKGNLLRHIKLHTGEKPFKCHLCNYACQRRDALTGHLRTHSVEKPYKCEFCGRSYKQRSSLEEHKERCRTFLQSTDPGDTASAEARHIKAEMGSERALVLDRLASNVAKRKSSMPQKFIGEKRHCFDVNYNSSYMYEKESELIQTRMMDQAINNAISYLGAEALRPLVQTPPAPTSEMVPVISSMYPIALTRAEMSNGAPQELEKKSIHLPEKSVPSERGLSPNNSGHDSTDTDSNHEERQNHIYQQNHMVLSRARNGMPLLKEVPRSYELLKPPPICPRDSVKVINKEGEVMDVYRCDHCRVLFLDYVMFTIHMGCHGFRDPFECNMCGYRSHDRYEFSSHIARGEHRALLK
Procedure: (§1) NAMALWA and Jurkat cell lines were purchased from ATCC and cultured according to supplier guidelines at 37° C., 5% CO2 in RPMI 1640 (Gibco) supplemented with 10% fetal bovine serum and 1× penicillin-streptomycin. Wild-type and C481S BTK XLA cell lines were cultured as previously described (39). Written, informed consent was obtained prior to the collection of cells from CLL patients using the IWCLL2008 criteria. Isolation of mononuclear cells from peripheral blood was prepared using density gradient centrifugation. B-cells were then negatively selected ([…] Technologies). Cells were then cultured at 1×10^7 cells/mL in RPMI 1640 (Gibco) with supplementation of 10% fetal bovine serum (VWR), 100 μg/mL streptomycin (Gibco), 100 U/mL penicillin-G (Gibco), and 2 mmol/L L-glutamine (Gibco). They were maintained at 37° C. in 5% CO2.
Either anti-rabbit or anti-mouse HRP-conjugated secondary antibodies (Pierce) were incubated with the membranes for 1 h at room temperature at 1:10,000 dilutions in 5% non-fat milk in 1×TBS-T. Imaging was performed using the ECL Prime chemiluminescent western blot detection reagents (Amersham) followed by visualization with the Bio-Rad ChemiDoc imaging instrument. All western blots were subsequently processed and quantified using the accompanying Bio-Rad Image Lab software. […]

[4] = Pharmacokinetics after IV compound administration in mice; type: in vivo; details: IV mice (1 mg/Kg)
[5] = molecular target: ERBB3 (Homo sapiens, UniProt P21860); assay: KINOMEscan competition-based binding assay; details: 1.0 μM
ERBB3, sequence (P21860 20-1342): as the sequence (P21860 20-1342) above

[6] = molecular target: C481S BTK (Homo sapiens, UniProt Q06187, C481S); assay: BTK and pBTK in primary CLL patient cells after relapse to ibrutinib; details: C481S BTK relapse patient sample
C481S BTK, sequence (Q06187 whole entry C481S): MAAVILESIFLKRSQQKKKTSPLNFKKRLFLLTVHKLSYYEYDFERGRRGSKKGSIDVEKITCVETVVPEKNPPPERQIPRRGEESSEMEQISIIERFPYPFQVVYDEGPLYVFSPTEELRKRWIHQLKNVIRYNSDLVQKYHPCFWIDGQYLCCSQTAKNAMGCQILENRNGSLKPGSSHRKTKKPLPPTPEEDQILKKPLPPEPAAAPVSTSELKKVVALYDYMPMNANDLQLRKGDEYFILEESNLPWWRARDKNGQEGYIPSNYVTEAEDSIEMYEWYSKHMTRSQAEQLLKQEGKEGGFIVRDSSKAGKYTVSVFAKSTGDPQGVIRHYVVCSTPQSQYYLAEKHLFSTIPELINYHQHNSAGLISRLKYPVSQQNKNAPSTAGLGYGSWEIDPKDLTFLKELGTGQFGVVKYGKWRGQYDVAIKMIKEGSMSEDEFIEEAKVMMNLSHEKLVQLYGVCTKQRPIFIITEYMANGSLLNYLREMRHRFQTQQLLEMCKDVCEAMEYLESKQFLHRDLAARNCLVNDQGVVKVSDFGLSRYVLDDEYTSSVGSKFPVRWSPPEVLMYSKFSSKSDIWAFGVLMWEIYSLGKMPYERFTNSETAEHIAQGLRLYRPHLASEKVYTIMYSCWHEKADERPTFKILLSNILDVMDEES
Procedure: The cell suspension was kept on ice and agitated every 10 minutes for 30 minutes, followed by centrifugation for 10 minutes at 4° C. The supernatant was then collected and frozen at −80° C. until quantification. Protein quantification was performed for each supernatant using the BCA method (Thermo Scientific). Protein from each sample was added to 2× or 6× Laemmli's Sample buffer as previously described (41). 50 μg of each sample and a protein molecular weight marker were loaded onto 10% polyacrylamide gels and electrophoresed. Transfer of the proteins and blocking of membranes were performed as previously described (40).
The blots were washed with TBS-T (Tris-buffered saline-0.05% Tween) three times for 10 minutes with constant agitation, then incubated with HRP-conjugated anti-rabbit or anti-mouse IgG (Santa Cruz Biotechnologies) diluted 1:5,000 in Blotto for 2 hours at 4° C. with constant agitation. Prior to development, the blots were again washed with TBS-T three times for 10 minutes with constant agitation. Blots were developed using chemiluminescent substrate (WesternBright by Advansta or SuperSignal by ThermoScientific) and X-ray film (GeneMate) was used to perform autoradiography. Quantification was performed on the protein bands using computer densitometry (AlphaView software).

[7] = molecular target: wild-type BTK (Homo sapiens, UniProt Q06187); assay: BTK degradation in XLA cells expressing wild-type BTK, immunoblot; type: cell-based; set-up: endogenous in cells; host or cells: primary B-lymphocytes from CLL patients (treatment-naive, or baseline before ibrutinib relapse); details: compared with C481S
wild-type BTK, sequence (Q06187 whole entry): as the sequence (Q06187 whole entry C481S) above, with S481C counted along it
Procedure: as §1
In various embodiments, treatment with PROTAC was performed in one of two ways: 1) For experiments involving >16 h exposure to compound, a 1000× stock was added to cells followed by gentle agitation; 2) For shorter treatments, a 2× stock was added to an equal volume of cells to ensure uniform drug exposure. […] Lysates were spun at 15,000×g for 10 min at 4° C. and supernatant was quantified for total protein content using the Pierce BCA Protein Assay (Thermo Fisher Scientific). […]

T1 sequence (Q06187 whole entry): as the sequence (Q06187 whole entry C481S) above, with S481C counted along it

## Nc1ncnc2c1c(-c1ccc(Oc3ccccc3)cc1)nn2C1CCN(CCOCCOCC(=O)Nc2ccc3c(c2)C(=O)N(C2CCC(=O)NC2=O)C3=O)CC1 (centres unmarked) [Compound 102, 2-(2-(2-(4-(4-amino-3-(4-phenoxyphenyl)-1H-pyrazolo[3,4-d]pyrimidin-1-yl)piperidin-1-yl)ethoxy)ethoxy)-N-(2-(2,6-dioxopiperidin-3-yl)-1,3-dioxoisoindolin-5-yl)acetamide]
[1]; 250 nM, NAMALWA cells
  time to full degradation of BTK: 4 h
[1]; 250 nM, NAMALWA cells, vs matched vehicle time point
  time at which half of total BTK is degraded (half-life): approximately 50 minutes
[1]; 25 μM 2.5 h, then 250 nM for 4 h
  BTK levels after pre-treatment with excess ibrutinib or pomalidomide: rescued BTK levels
[1]; Table 5, NAMALWA cells
  DC50: 0.011 µM
[1]; Table 6, in NAMALWA cells line
  DC50: 0.011 µM
[1]; Table 6, in NAMALWA cells line, read-out: Dmax
  Dmax: > 99%
[1]; concentrations of up to 2.5 μM
  hook-effect (increase in BTK levels at high PROTAC concentration): no significant increases in BTK levels; also recorded: No “hook-effect”
[1]; epoxomicin 1 μM 2.5 h, then 250 nM for 4 h
  BTK degradation after pre-treatment with epoxomicin: did not result in BTK degradation
[2]
  HER3 Degradation: No
[3]
  IKZF3 degradation: No degradation of either protein was observed
[4]
  Clearance (Cl): 1662 mL/min/kg
  Half Life (t1/2): 7.14 min
[4]; Tmax 0.033 h
  Cmax: 73 ng/mL
[4]; mouse, in vivo, read-out: Exposure (AUClast)
  AUC(0-t): 10.2 ng·h/mL
[5]
  displacement of competitive probe bound to ERBB3: fully displaced the competitive probe bound to ERBB3
[6]
  BTK degradation: able to degrade both the wild-type baseline and C481S BTK relapse primary patient sample
[7]
  potency of degradation based on DC50 and Dmax: equivalent potency of degradation
